Measurements: US20150269307A1, “TARGET INHIBITION MAP SYSTEM FOR COMBINATION THERAPY DESIGN AND METHODS OF USING SAME” (Texas Tech University System, priority 2014, published 2015)
Read-outs that look alike come from different tables or passages of the source.

How the values were obtained:
[1] = system: human patient-derived xenografts; assay: Xenograft-derived chemical screen (Supplemental Table 3); format: cell-based; settings: 60 agent PPTI screen; for IC50: read-out: IC50 Value
Procedure: Three chemical screens were applied to the U23674 primary tumor cell culture. […] The target inhibition profile is a quantified description of the inhibitory properties of the compound on the numerous protein targets preset on the PPTI screen.
To screen the chemical agents, cell cultures were plated in 384 well plates at a seeding density of 2000 cells per well over graded concentrations of the numerous compounds. The chemical concentrations were between 10 nM and […] depending on the activity range of the compounds. The cells were incubated in DMEM supplemented with 1% penicillin streptomycin, and 10% fetal bovine serum for 72 hours. Chemical sensitivity was determined by an MTS cell viability assay after the 72 hour incubation period. The sensitivity responses at the different concentrations were used to determine the chemical IC50 using a hill curve fitting algorithm with variable hill slope coefficients.

DIPG neurospheres = assay: cells; settings: for IC50: 48 h, read-out: In Vitro Absolute IC50; for viability at 10 µM: read-out: cell viability (cytocidal)
Procedure: Primary cultures of DIPG neurospheres were added to 384 well plates pre-plated with 60 known drugs in an increasing gradient of concentrations. […] To complete this drug screen, primary cultures of nestin […] 53 deficient DIPG neurospheres were added to plates with 60 known drug samples in an increasing gradient of concentrations.

| IC50 ([1]; Homo sapiens) | IC50 Value [1] | Compound | further results |
| --- | --- | --- | --- |
| 2.66 µM | – | CN(C)CC[C@H](CSc1ccccc1)Nc1ccc(S(=O)(=O)NC(=O)c2ccc(N3CCN(Cc4ccccc4-c4ccc(Cl)cc4)CC3)cc2)cc1[N+](=O)[O-] [ABT-737] | – |
| 1.03 µM | – | CCNC(=O)c1noc(-c2cc(C(C)C)c(O)cc2O)c1-c1ccc(CN2CCOCC2)cc1 [AUY922] | – |
| – | >conc tested | CNC(=O)CN1CCC(Oc2cc3c(Nc4cccc(Cl)c4F)ncnc3cc2OC)CC1 [AZD-8931] | – |
| – | >conc tested | Cn1c(=O)n(-c2ccc(C(C)(C)C#N)cc2)c2c3cc(-c4cnc5ccccc5c4)ccc3ncc21 [BEZ235] | – |
| 6.81 µM | – | COc1cc2nc(N3CCCN(C)CC3)nc(NC3CCN(Cc4ccccc4)CC3)c2cc1OC [BIX-01294] | IC50 (DIPG neurospheres): 3.95 µM; viability at 10 µM (DIPG neurospheres): < 15% |
| 5.49 µM | – | NC1(c2ccc(-c3nc4ccn5c(=O)[nH]nc5c4cc3-c3ccccc3)cc2)CCC1 [MK-2206] | – |
| – | >conc tested | CN(c1ncccc1CNc1nc(Nc2ccc3c(c2)CC(=O)N3)ncc1C(F)(F)F)S(C)(=O)=O [PF-562271] | – |
| – | >conc tested | CC(C)(C(=O)NCC(F)(F)C(F)(F)F)C(=O)N[C@@H]1C(=O)Nc2ccccc2-c2ccccc21 [RO4929097] | – |
| – | >conc tested | NC(=O)c1ccc(-c2nc(-c3ccc4c(c3)OCO4)c(-c3ccccn3)[nH]2)cc1 [SB-431542] | – |
| – | >conc tested | CCOc1cc(/C=C2/C(=O)N(c3ccccc3)N=C2C)cc(Cl)c1OCC(=O)OC [SJ-172550] | – |
| – | >conc tested | CC(C)(C)c1cnc(CSc2cnc(NC(=O)C3CCNCC3)s2)o1 [SNS-032] | IC50 (DIPG neurospheres): 0.505 µM; viability at 10 µM (DIPG neurospheres): < 15% |
| – | >conc tested | N#Cc1ccc(COC[C@H]2O[C@@H](n3c(NCc4ccc(Cl)c(Cl)c4)nc4c(N)ncnc43)[C@H](O)[C@@H]2O)cc1 [VER-155008] | – |

Continued, compound first:

| Compound | IC50 ([1]; Homo sapiens) | IC50 Value [1] | further results |
| --- | --- | --- | --- |
| CC(C)C[C@H](NC(=O)[C@H](CCc1ccccc1)NC(=O)CN1CCOCC1)C(=O)N[C@@H](Cc1ccccc1)C(=O)N[C@@H](CC(C)C)C(=O)[C@@]1(C)CO1 [Carfilzomib] | 0.86 µM | – | IC50 (DIPG neurospheres): 0.834 µM; viability at 10 µM (DIPG neurospheres): < 15% |
| C[C@@H](Oc1cc(-c2cnn(C3CCNCC3)c2)cnc1N)c1c(Cl)ccc(F)c1Cl [Crizontinib, crizotinib] | 5.14 µM | – | IC50 (DIPG neurospheres): 6.23 µM; viability at 10 µM (DIPG neurospheres): < 15% |
| CN(C)c1ccccc1CN1CCCN(Cc2ccccc2N(C)C)C1c1ccncc1 [GANT61] | – | – | IC50 [1]: 7.38 µM |
| CC(=O)N[C@@H](CS)C(=O)O [NAC, N-acetyl cysteine] | – | >conc tested | – |
| COC1=CC(c2cc3ccccc3[nH]2)=N/C1=C\c1[nH]c(C)cc1C [Obatoclax] | – | – | IC50 (DIPG neurospheres): 0.159 µM; viability at 10 µM (DIPG neurospheres): < 15% |
| CCN(CC)CCNC(=O)c1c(C)[nH]c(/C=C2\C(=O)Nc3ccc(F)cc32)c1C [Sunitinib] | – | – | IC50 (DIPG neurospheres): 6.92 µM; viability at 10 µM (DIPG neurospheres): < 15% |
| COc1cc(Nc2ncc3c(n2)-c2ccc(Cl)cc2C(c2c(F)cccc2OC)=NC3)ccc1C(=O)O [alisertib] | – | >conc tested | – |
| CN1CC[C@H](c2c(O)cc(O)c3c(=O)cc(-c4ccccc4Cl)oc23)[C@H](O)C1 [alvocidib] | – | >conc tested | – |
| CC(C)C[C@H](NC(=O)[C@H](Cc1ccccc1)NC(=O)c1cnccn1)B(O)O [bortezomib] | 0.821 µM | – | – |
| COc1cc2c(Oc3ccc4[nH]c(C)cc4c3F)ncnc2cc1OCCCN1CCCC1 [cediranib] | – | >conc tested | – |
| CC(C)[C@H]1C(=O)N[C@@H](CCCN=C(N)N)C(=O)NCC(=O)N[C@@H](CC(=O)O)C(=O)N[C@H](Cc2ccccc2)C(=O)N1C [cilengitide] | – | >conc tested | – |
| Nc1ccccc1NC(=O)c1ccc(CNC(=O)OCc2cccnc2)cc1 [entinostat] | 1.79 µM | – | – |
| Cn1cc(C2=C(c3cn(C4CCN(Cc5ccccn5)CC4)c4ccccc34)C(=O)NC2=O)c2ccccc21 [enzastaurin] | – | >conc tested | – |
| CC1=C(/C=C/C(C)=C/C=C/C(C)=C/C(=O)Nc2ccc(O)cc2)C(C)(C)CCC1 [fenretinide] | – | >conc tested | – |
| COc1cc(Nc2ncc(F)c(Nc3ccc4c(n3)N(COP(=O)(O)O)C(=O)C(C)(C)O4)n2)cc(OC)c1OC [fostamatinib] | 5.15 µM | – | – |
| CS(=O)(=O)CCNCc1ccc(-c2ccc3ncnc(Nc4ccc(OCc5cccc(F)c5)c(Cl)c4)c3c2)o1 [lapatinib] | – | >conc tested | – |

| Compound | IC50 ([1]; Homo sapiens) | IC50 Value [1] | further results |
| --- | --- | --- | --- |
| Nc1cccc2c1CN(C1CCC(=O)NC1=O)C2=O (centres unmarked) [lenalidomide] | – | >conc tested | – |
| Cc1cn(-c2cc(NC(=O)c3ccc(C)c(Nc4nccc(-c5cccnc5)n4)c3)cc(C(F)(F)F)c2)cn1 [nilotinib] | – | >conc tested | – |
| Cc1[nH]c2ccccc2c1CCNCc1ccc(/C=C/C(=O)NO)cc1 [panobinostat] | 0.245 µM | – | – |
| CCOc1cc2ncc(C#N)c(Nc3ccc(F)c(Cl)c3)c2cc1NC(=O)/C=C/CN(C)C [pelitinib] | – | >conc tested | – |
| CCN(CC)CCCC(C)Nc1c2ccc(Cl)cc2nc2ccc(OC)cc12 (centres unmarked) [quinacrine] | 4.92 µM | – | – |
| CCCC(=O)[O-].[Na+] [sodium butyrate] | – | >conc tested | – |
| CNC(=O)c1cc(Oc2ccc(NC(=O)Nc3ccc(Cl)c(C(F)(F)F)c3)cc2)ccn1 [sorafenib] | 6.13 µM | – | – |
| CO[C@H]1C[C@@H]2CC[C@@H](C)[C@@](O)(O2)C(=O)C(=O)N2CCCC[C@H]2C(=O)O[C@H]([C@H](C)C[C@@H]2CC[C@@H](OC(=O)C(C)(CO)CO)[C@H](OC)C2)CC(=O)[C@H](C)/C=C(\C)[C@@H](O)[C@@H](OC)C(=O)[C@H](C)C[C@H](C)/C=C/C=C/C=C/1C [temsirolimus] | – | >conc tested | – |
| Cc1cc(Nc2cc(N3CCN(C)CC3)nc(Sc3ccc(NC(=O)C4CC4)cc3)n2)[nH]n1 [tozasertib] | – | >conc tested | – |
| CC1=C(/C=C/C(C)=C/C=C/C(C)=C/C(=O)O)C(C)(C)CCC1 [tretinoin] | – | >conc tested | – |
| CC(/C=C/C(=O)NO)=C\[C@@H](C)C(=O)c1ccc(N(C)C)cc1 [trichostatin A] | – | – | IC50 [1]: 5.52 µM |
| COc1cc2c(Nc3ccc(Br)cc3F)ncnc2cc1OCC1CCN(C)CC1 [vandetanib] | 3.04 µM | – | – |
| C[C@]1(c2nc3c(C(N)=O)cccc3[nH]2)CCCN1 [veliparib] | – | >conc tested | – |
| CS(=O)(=O)c1ccc(C(=O)Nc2ccc(Cl)c(-c3ccccn3)c2)c(Cl)c1 [vismodegib] | – | >conc tested | – |
| COc1nc(C)cnc1NS(=O)(=O)c1cccnc1-c1ccc(-c2nnco2)cc1 [zibotentan] | – | >conc tested | – |
